These are literature values, as cited in patent publication US12419901B2, “Prodrugs of deoxynucleosides for treatment of diseases caused by unbalanced nucleotide pools” (UCB BIOSCIENCES, INC., priority 2018, dated 2025).

This data set deals with dGK deficient patient derived fibroblasts. The note with it: 50 μM in cell culture medium, quiescent dGK-deficient fibroblasts.

Turning to `Nc1nc2c(ncn2[C@H]2C[C@H](O)[C@@H](CO)O2)c(=O)[nH]1` [dGuo, deoxyguanosine], the “mtDNA depletion (previously demonstrated)” value is “sufficient to prevent this depletion”.
